In test [1] the target is T1, Serine/threonine-protein kinase TAO2 (Homo sapiens) (UniProt Q9UL54).
T1 sequence (whole entry): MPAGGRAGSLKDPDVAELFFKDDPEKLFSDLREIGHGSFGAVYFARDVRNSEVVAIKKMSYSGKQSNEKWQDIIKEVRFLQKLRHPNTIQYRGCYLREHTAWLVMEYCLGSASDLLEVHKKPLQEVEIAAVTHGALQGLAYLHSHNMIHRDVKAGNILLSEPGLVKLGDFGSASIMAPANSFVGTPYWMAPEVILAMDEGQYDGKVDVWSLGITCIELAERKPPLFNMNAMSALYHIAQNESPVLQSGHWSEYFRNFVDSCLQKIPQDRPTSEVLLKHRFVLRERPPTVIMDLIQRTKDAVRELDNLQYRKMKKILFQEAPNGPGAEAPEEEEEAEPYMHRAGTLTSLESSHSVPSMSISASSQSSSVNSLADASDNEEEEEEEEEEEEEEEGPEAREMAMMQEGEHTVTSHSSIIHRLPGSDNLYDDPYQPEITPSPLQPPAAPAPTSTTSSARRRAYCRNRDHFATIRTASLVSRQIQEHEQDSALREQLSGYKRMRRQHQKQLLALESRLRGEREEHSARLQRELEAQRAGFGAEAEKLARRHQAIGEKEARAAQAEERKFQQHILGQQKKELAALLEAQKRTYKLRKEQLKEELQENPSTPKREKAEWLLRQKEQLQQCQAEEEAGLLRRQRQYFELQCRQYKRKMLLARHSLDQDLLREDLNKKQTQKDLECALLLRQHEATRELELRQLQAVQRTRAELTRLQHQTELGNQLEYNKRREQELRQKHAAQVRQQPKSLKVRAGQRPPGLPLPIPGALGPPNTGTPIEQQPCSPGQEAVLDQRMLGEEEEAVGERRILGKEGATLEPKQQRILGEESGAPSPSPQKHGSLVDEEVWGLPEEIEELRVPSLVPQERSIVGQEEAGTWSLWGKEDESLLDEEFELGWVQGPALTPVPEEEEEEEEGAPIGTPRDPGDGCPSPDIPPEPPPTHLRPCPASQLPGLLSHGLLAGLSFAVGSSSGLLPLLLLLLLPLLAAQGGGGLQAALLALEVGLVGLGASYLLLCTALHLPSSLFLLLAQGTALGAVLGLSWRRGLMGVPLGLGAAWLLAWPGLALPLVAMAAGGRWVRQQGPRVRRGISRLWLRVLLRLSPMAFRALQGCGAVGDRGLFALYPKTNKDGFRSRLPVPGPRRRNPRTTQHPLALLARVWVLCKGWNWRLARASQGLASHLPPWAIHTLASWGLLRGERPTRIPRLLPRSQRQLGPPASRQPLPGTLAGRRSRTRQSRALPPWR
Kind of test: Inhibition of human recombinant TAO2 at 15 nM related to control ULK1.

Test [2] deals with Platelet-derived growth factor receptor beta (Homo sapiens) (UniProt P09619). The experiment in a line: Inhibition of human recombinant PDGFRb at 15 nM in presence of ATP by radiometric assay relative to control.
Chain of Platelet-derived growth factor receptor beta (Homo sapiens) (P09619 whole entry): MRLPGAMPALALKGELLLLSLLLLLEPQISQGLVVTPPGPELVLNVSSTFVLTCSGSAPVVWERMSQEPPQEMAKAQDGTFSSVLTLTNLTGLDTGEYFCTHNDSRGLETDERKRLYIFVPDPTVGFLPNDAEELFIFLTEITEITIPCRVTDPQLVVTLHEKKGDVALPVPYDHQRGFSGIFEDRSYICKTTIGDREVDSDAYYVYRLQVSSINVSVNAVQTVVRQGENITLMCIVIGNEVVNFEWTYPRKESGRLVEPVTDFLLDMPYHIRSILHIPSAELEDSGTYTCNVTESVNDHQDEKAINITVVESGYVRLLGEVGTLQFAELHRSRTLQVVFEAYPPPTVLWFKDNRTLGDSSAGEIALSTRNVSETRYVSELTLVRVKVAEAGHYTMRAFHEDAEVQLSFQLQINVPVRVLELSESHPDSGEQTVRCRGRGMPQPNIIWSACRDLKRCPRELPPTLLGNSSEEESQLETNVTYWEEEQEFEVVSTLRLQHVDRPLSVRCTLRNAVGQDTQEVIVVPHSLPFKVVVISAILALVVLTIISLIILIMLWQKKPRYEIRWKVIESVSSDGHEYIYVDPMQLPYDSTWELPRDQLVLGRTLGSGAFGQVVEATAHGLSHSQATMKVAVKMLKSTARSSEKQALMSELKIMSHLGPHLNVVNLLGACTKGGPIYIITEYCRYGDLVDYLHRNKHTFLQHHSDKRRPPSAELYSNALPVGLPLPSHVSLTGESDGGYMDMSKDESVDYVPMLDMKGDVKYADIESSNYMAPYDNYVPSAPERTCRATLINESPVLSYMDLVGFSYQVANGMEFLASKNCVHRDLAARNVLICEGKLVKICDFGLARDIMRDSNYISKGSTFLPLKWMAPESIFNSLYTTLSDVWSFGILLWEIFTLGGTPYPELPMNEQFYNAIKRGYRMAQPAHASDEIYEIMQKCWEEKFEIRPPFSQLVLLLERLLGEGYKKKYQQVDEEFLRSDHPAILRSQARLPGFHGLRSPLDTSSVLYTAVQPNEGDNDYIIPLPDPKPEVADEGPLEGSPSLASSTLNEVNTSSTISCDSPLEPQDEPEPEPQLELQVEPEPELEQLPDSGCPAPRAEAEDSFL
Test [3] addresses T2, Serine/threonine-protein kinase 17B (Homo sapiens) (UniProt O94768).
T2 sequence (whole entry): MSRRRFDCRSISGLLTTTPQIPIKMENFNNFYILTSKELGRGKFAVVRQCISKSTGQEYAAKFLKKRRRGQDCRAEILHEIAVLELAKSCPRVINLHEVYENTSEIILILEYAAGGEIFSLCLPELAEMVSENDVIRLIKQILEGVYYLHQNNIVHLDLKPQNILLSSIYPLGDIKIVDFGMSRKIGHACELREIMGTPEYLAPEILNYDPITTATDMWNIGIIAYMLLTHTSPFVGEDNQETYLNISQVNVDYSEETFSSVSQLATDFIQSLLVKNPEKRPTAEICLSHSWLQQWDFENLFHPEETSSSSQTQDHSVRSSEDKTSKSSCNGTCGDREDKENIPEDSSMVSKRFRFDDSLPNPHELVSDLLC
Kind of test: Inhibition of human recombinant DRAK2 at 15 nM in presence of ATP by radiometric assay relative to control.

Test [4] concerns the target T3, Inhibitor of nuclear factor kappa-B kinase subunit epsilon (Homo sapiens) (UniProt Q14164).
T3 sequence (whole entry): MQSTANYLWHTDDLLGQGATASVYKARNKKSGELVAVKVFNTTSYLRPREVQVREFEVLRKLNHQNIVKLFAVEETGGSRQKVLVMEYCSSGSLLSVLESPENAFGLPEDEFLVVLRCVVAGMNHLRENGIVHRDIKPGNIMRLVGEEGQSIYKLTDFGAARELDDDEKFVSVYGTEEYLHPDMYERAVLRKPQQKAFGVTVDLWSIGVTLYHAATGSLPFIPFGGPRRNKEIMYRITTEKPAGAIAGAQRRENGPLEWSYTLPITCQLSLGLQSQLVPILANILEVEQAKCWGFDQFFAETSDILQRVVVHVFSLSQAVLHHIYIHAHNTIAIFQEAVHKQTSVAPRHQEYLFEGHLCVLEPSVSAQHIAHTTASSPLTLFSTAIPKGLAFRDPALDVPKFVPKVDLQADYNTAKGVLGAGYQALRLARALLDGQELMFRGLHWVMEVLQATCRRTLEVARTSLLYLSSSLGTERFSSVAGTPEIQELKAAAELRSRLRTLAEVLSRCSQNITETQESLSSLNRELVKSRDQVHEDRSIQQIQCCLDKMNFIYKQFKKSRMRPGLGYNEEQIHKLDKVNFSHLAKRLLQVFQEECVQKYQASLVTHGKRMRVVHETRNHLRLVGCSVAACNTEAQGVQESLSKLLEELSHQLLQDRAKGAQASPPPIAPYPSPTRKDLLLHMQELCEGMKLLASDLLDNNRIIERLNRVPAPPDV
The experiment in a line: Inhibition of human recombinant IKKe at 15 nM related to control ULK1.

The target of test [5] is Dual specificity protein kinase CLK3 (Homo sapiens) (UniProt P49761). Kind of test: Inhibition of human recombinant CLK3 at 40 nM in presence of ATP by radiometric assay relative to control.
Chain of Dual specificity protein kinase CLK3 (Homo sapiens) (P49761 whole entry, looked up): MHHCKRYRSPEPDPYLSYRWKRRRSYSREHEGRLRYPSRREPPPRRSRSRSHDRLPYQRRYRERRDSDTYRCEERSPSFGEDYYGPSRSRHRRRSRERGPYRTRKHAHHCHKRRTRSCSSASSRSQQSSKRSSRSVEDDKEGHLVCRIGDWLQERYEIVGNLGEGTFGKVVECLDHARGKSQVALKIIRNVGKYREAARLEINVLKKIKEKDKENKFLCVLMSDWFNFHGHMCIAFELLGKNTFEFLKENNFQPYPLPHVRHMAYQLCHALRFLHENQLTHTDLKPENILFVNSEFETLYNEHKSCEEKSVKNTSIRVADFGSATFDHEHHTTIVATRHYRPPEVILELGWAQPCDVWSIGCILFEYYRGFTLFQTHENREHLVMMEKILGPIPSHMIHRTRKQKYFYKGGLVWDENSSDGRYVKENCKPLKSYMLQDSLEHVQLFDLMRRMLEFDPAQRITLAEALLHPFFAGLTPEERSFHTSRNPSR
In test [6] the target is Serine/threonine-protein kinase PAK 5 (Homo sapiens) (UniProt Q9P286). The experiment in a line: Inhibition of human recombinant PAK5 at 500 nM related to control ULK1.
Chain of Serine/threonine-protein kinase PAK 5 (Homo sapiens) (Q9P286 whole entry, looked up): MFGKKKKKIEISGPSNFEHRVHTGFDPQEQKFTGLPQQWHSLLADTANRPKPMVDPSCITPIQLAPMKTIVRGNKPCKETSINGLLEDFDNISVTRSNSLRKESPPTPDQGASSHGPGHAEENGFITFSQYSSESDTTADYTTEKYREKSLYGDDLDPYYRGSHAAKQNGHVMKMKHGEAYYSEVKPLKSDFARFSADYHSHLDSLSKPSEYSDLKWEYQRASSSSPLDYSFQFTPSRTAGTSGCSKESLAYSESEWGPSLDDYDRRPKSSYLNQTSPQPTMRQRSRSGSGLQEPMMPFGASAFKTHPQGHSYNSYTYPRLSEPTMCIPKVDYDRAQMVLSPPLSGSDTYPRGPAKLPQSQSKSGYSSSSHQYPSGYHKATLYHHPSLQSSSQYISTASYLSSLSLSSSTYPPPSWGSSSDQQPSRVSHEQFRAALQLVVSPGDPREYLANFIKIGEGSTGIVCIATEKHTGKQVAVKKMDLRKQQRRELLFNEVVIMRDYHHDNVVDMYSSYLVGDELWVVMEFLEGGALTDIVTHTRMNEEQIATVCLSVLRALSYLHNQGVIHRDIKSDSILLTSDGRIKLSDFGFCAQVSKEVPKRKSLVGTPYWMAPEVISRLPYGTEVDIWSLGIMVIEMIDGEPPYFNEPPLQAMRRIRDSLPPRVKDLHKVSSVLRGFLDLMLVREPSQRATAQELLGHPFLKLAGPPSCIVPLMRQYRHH

In the case of `CC(C)[C@H](NC(=O)c1cc(-c2cnn3cc(-c4ccc(OCCN5CCCCC5)cc4)cnc23)cs1)C(F)(F)F`, the fold change (FC) amounted to 0 in test [1] and 0.85 in test [4]. Besides, the inhibition (as a rule, the change of the read-out against control, counted positive when it falls) in test [2] is 0%; in test [3], 69%.

Take `O=C(N[C@@H](C1CC1)C(F)(F)F)c1cc(-c2cnn3cc(-c4ccc(F)cc4)cnc23)cs1`: in test [5], the inhibition worked out at 0%.

Regarding `CNC(=O)c1ccccc1Oc1nc(Nc2cc(OC)c(OC)c(OC)c2)ncc1Br`, in test [6], the fold change (FC) came out at 0.07.

Source of the values: ChEMBL document CHEMBL5653631, “A Potent and Selective ULK1 Inhibitor Suppresses Autophagy and Sensitizes Cancer Cells to Nutrient Stress” (iScience, 2018).
